Patent US10292383B2, “Use of surface-reacted calcium carbonate as carrier for agrochemical compounds” (Omya International AG, priority 2015, dated 2019)

Test system: Plasmopara viticola
Assay: Field application trial against downy mildew on vineyard (PESSEV / PESINC assessment on leaves and bunches)
Format: in vivo
Details: between T2 (0.021 kg DM/ha) and T3 (0.21 kg DM/ha), both on leaves and bunches
Procedure: The application trials were carried out in Piedmont, Italy. In these trials, three different dosage rates of three of the above-mentioned samples (SRCC1-0.5 DM, SRCC1-5 DM, SRCC1-25 DM) were applied against downy mildew on vineyard and the efficacy and selectivity thereof was evaluated. In addition, the performance in comparison to commercially available fungicides was also evaluated. […]
The efficacy against Plasmopara viticola and the selectivity on the crop of the test products SRCC1-0.5 DM and SRCC1-5 DM both applied in mixture with tribasic copper sulfate (Cupravit Bio Evoluion WG), respectively, in treatments T2 and T3, were evaluated. […]
The efficacy of SRCC1-25 DM was also evaluated in treatment T4 and compared with the reference F50 sprayed in treatment T6. […]
In this trial according to the present invention, the disease pressure was assessed through two standard parameters: • (i) PESSEV=the pest severity (i.e. the intensity) determined as infected area per bunch or leaf in %; and • (ii) PESINC=the pest incidence (i.e. the frequency) determined in % of bunches and leaves infected. […]

COc1ccc(C(=CC(=O)N2CCOCC2)c2ccc(Cl)cc2)cc1OC [dimethomorph] was tested. Which “dosage rate effect of active ingredient” value did it give?
Its value is “significant dosage rate effect”.
